# Results taken from publication PMC10318822, “Phase 1 dose-escalation study to evaluate the safety, tolerability, pharmacokinetics, and anti-tumor activity of FCN-159 in adults with neurofibromatosis type 1-related unresectable plexiform neurofibromas” (BMC Medicine, 2023).
# System: adult patients with NF1-related PN
# Assay: Phase I dose-escalation: DLT, MTD, RP2D and drug-related TEAEs (CTCAE v5.0)
# Procedure: This is a multicenter, open-label, single-arm, non-randomized, phase I dose-escalation trial to evaluate the safety, tolerability, pharmacokinetic (PK), and anti-tumor activity of orally administered FCN-159 in adult patients with NF1 (NCT04954001). Phase I commenced with dose escalation in adult patients following a standard 3 + 3 design (Supplementary Table S1) to determine the maximum tolerated dose (MTD) of FCN-159 administered daily under fasting conditions (defined as no food or drink 1 h before and 2 h after each dose) in 28-day cycles. Study drug was dispensed at the study site and patient adherence was monitored by the records of drug dispensation and return. Patients were on treatment until PD, death, patient's voluntary withdrawal from study treatment, or study termination. The study was followed for 2 years after the last patient in. The starting dose was 4 mg, escalating in cohorts of at least three evaluable patients at 6 mg, 8 mg, and 12 mg until the MTD was determined. The starting dose in this study was determined based on available data from a phase 1a, first-in-human study of FCN-159 in patients with advanced NRAS ^mut+ melanoma at the time of study design. […] Dose expansion at a likely RP2D level enrolled approximately six patients. The highest dose level with a dose-limiting toxicity (DLT) incidence rate ≤ 33% (0/3 or 1/6 patients) was to be considered the MTD. If patients experienced grade ≥ 3 and/or unacceptable toxic events that were considered as at least possibly related to the study treatment, the study treatment was discontinued and supportive treatment was given in accordance with local treatment routines. If the toxicity returned to grade ≤ 2 within 28 days after the occurrence, and there was no progression on patients’ conditions or the investigator believed that patients could benefit from the study treatment, the original dose could be maintained or reduced after discussion with medical monitor. After completion of the dose escalation part of the study, PK, efficacy, safety, and tolerability data were analyzed to select the RP2D.
# Primary endpoints of the study were the DLT incidence rate, MTD, and RP2D. Secondary endpoints included other safety assessments, imaging tumor response (complete response [CR], PR, stable disease [SD], or progressive disease [PD]), and PK parameters of FCN-159. Adverse events were graded per CTCAE v5.0.
# All patients underwent a complete medical history, physical examination, Eastern Cooperative Oncology Group (ECOG) assessment, and laboratory analysis of test results. Drug-related TEAEs, serious adverse events (SAEs), TEAEs of grade ≥ 3 toxicity, and TEAEs leading to drug discontinuation were reviewed on an ongoing basis. Efficacy was assessed by radiologic scans and clinical assessment. Tumor assessments per Response Evaluation in Neurofibromatosis Schwannomatosis criteria were performed by investigators using MRI volumetric analysis every 4 cycles within the first 2 years (± 7 days) and every 6 cycles after 2 years (± 14 days) until PD, death, patient's voluntary withdrawal from study treatment, or study termination. MRI sequences of […], T1- and T2-weighted sequences were chosen and the software of Extended Brilliance Workspace, SIGNA Premier and uExceed were used for MRI volumetric analysis. The same software was used for all tumor assessments at baseline and subsequent assessed timepoints of the same patient. Pain was assessed by an 11-point numerical rating scale (NRS-11).
# The sample size for the dose-escalation study was estimated to be 24 based on the 3 + 3 method. Safety was analyzed in patients who received at least one dose of FCN-159 and had at least one safety assessment. DLT was assessed in the DLT analysis set, defined as patients who were enrolled in the dose-escalation study and met the DLT evaluation criteria.
compound,measurement,setting,value
Cn1c(=O)c(F)c(Nc2ccc(I)cc2F)c2c(=O)n(C3CC3)nc(-c3cccc(NS(=O)(=O)C4CC4)c3)c21 [FCN-159],DLT events,4 mg,No DLT events were observed
same,Drug-related TEAE: Abdominal pain,4 mg (N = 3),0 n (%)
same,Drug-related TEAE: Acne,4 mg (N = 3),0 n (%)
same,Drug-related TEAE: Acne pustular,4 mg (N = 3),0 n (%)
same,Drug-related TEAE: Alanine aminotransferase increased,4 mg (N = 3),0 n (%)
same,Drug-related TEAE: Albumin globulin ratio decreased,4 mg (N = 3),0 n (%)
same,Drug-related TEAE: Alopecia,4 mg (N = 3),0 n (%)
same,Drug-related TEAE: Amylase increased,4 mg (N = 3),0 n (%)
same,Drug-related TEAE: Anemia,4 mg (N = 3),0 n (%)
same,Drug-related TEAE: Aortic dilatation,4 mg (N = 3),0 n (%)
same,Drug-related TEAE: Aspartate aminotransferase increased,4 mg (N = 3),0 n (%)
same,Drug-related TEAE: Asthenia,4 mg (N = 3),0 n (%)
same,Drug-related TEAE: Beta globulin decreased,4 mg (N = 3),1 (33.3) n (%)
same,Drug-related TEAE: Beta globulin increased,4 mg (N = 3),1 (33.3) n (%)
same,Drug-related TEAE: Blood alkaline phosphatase increased,4 mg (N = 3),0 n (%)
same,Drug-related TEAE: Blood bilirubin increased,4 mg (N = 3),1 (33.3) n (%)
same,Drug-related TEAE: Blood creatine phosphokinase increased,4 mg (N = 3),1 (33.3) n (%)
same,Drug-related TEAE: Blood fibrinogen increased,4 mg (N = 3),0 n (%)
same,Drug-related TEAE: Blood lactate dehydrogenase increased,4 mg (N = 3),1 (33.3) n (%)
same,Drug-related TEAE: Blood pressure increased,4 mg (N = 3),0 n (%)
same,Drug-related TEAE: Blood urea increased,4 mg (N = 3),1 (33.3) n (%)
same,Drug-related TEAE: Blood uric acid increased,4 mg (N = 3),1 (33.3) n (%)
same,Drug-related TEAE: Breath odor,4 mg (N = 3),0 n (%)
same,Drug-related TEAE: Capillary disorder,4 mg (N = 3),1 (33.3) n (%)
same,Drug-related TEAE: Constipation,4 mg (N = 3),0 n (%)
same,Drug-related TEAE: Decreased appetite,4 mg (N = 3),0 n (%)
same,Drug-related TEAE: Dermatitis acneiform,4 mg (N = 3),0 n (%)
same,Drug-related TEAE: Diarrhea,4 mg (N = 3),0 n (%)
same,Drug-related TEAE: Drug eruption,4 mg (N = 3),1 (33.3) n (%)
same,Drug-related TEAE: Dyslipidemia,4 mg (N = 3),1 (33.3) n (%)
same,Drug-related TEAE: Ejection fraction decreased,4 mg (N = 3),0 n (%)
same,Drug-related TEAE: Electrocardiogram QT prolonged,4 mg (N = 3),0 n (%)
same,Drug-related TEAE: Electrocardiogram abnormal,4 mg (N = 3),0 n (%)
same,Drug-related TEAE: Epistaxis,4 mg (N = 3),1 (33.3) n (%)
same,Drug-related TEAE: Folliculitis,4 mg (N = 3),0 n (%)
same,Drug-related TEAE: Functional gastrointestinal disorder,4 mg (N = 3),0 n (%)
same,Drug-related TEAE: Gamma-glutamyltransferase increased,4 mg (N = 3),0 n (%)
same,Drug-related TEAE: Gingival pain,4 mg (N = 3),0 n (%)
same,Drug-related TEAE: Hyperlipidemia,4 mg (N = 3),0 n (%)
same,Drug-related TEAE: Hypertension,4 mg (N = 3),0 n (%)
same,Drug-related TEAE: Hypoalbuminemia,4 mg (N = 3),0 n (%)
same,Drug-related TEAE: Hypocalcemia,4 mg (N = 3),0 n (%)
same,Drug-related TEAE: Hypophosphatemia,4 mg (N = 3),0 n (%)
same,Drug-related TEAE: Hypoproteinemia,4 mg (N = 3),0 n (%)
same,Drug-related TEAE: Immunoglobulins increased,4 mg (N = 3),2 (66.7) n (%)
same,Drug-related TEAE: Impetigo,4 mg (N = 3),1 (33.3) n (%)
same,Drug-related TEAE: Left atrial enlargement,4 mg (N = 3),0 n (%)
same,Drug-related TEAE: Lipoprotein abnormal,4 mg (N = 3),1 (33.3) n (%)
same,Drug-related TEAE: Malaise,4 mg (N = 3),1 (33.3) n (%)
same,Drug-related TEAE: Menstrual disorder,4 mg (N = 3),0 n (%)
same,Drug-related TEAE: Mitral valve incompetence,4 mg (N = 3),0 n (%)
same,Drug-related TEAE: Mouth ulceration,4 mg (N = 3),0 n (%)
same,Drug-related TEAE: Muscular weakness,4 mg (N = 3),0 n (%)
same,Drug-related TEAE: Oedema peripheral,4 mg (N = 3),0 n (%)
same,Drug-related TEAE: Pain in extremity,4 mg (N = 3),1 (33.3) n (%)
same,Drug-related TEAE: Paronychia,4 mg (N = 3),1 (33.3) n (%)
same,Drug-related TEAE: Prealbumin decreased,4 mg (N = 3),0 n (%)
same,Drug-related TEAE: Protein urine present,4 mg (N = 3),1 (33.3) n (%)
same,Drug-related TEAE: Pruritus,4 mg (N = 3),0 n (%)
same,Drug-related TEAE: QRS axis abnormal,4 mg (N = 3),1 (33.3) n (%)
same,Drug-related TEAE: Rash,4 mg (N = 3),1 (33.3) n (%)
same,Drug-related TEAE: Sinus arrhythmia,4 mg (N = 3),1 (33.3) n (%)
same,Drug-related TEAE: Sinus bradycardia,4 mg (N = 3),1 (33.3) n (%)
same,Drug-related TEAE: Sinusitis,4 mg (N = 3),0 n (%)
same,Drug-related TEAE: Skin exfoliation,4 mg (N = 3),0 n (%)
same,Drug-related TEAE: Specific gravity urine increased,4 mg (N = 3),1 (33.3) n (%)
same,Drug-related TEAE: Stomatitis,4 mg (N = 3),2 (66.7) n (%)
same,Drug-related TEAE: Supraventricular extrasystoles,4 mg (N = 3),1 (33.3) n (%)
same,Drug-related TEAE: Total bile acids increased,4 mg (N = 3),1 (33.3) n (%)
same,Drug-related TEAE: Tricuspid valve incompetence,4 mg (N = 3),0 n (%)
same,Drug-related TEAE: Urinary occult blood positive,4 mg (N = 3),0 n (%)
same,Drug-related TEAE: Urinary sediment present,4 mg (N = 3),0 n (%)
same,Drug-related TEAE: Urinary tract infection,4 mg (N = 3),0 n (%)
same,Drug-related TEAE: Urine ketone body present,4 mg (N = 3),0 n (%)
same,Drug-related TEAE: Urobilinogen urine increased,4 mg (N = 3),2 (66.7) n (%)
same,Drug-related TEAE: Urticaria,4 mg (N = 3),0 n (%)
same,Drug-related TEAE: Vision blurred,4 mg (N = 3),0 n (%)
same,Drug-related TEAE: Visual acuity reduced,4 mg (N = 3),0 n (%)
same,Drug-related TEAE: pH urine decreased,4 mg (N = 3),0 n (%)
same,Drug-related TEAE: pH urine increased,4 mg (N = 3),1 (33.3) n (%)
same,Subjects with any drug-related TEAE,4 mg (N = 3),3 (100) n (%)
same,DLT events,6 mg,No DLT events were observed
same,Drug-related TEAE: Abdominal pain,6 mg (N = 4),0 n (%)
same,Drug-related TEAE: Acne,6 mg (N = 4),1 (25.0) n (%)
same,Drug-related TEAE: Acne pustular,6 mg (N = 4),0 n (%)
same,Drug-related TEAE: Alanine aminotransferase increased,6 mg (N = 4),1 (25.0) n (%)
same,Drug-related TEAE: Albumin globulin ratio decreased,6 mg (N = 4),0 n (%)
same,Drug-related TEAE: Alopecia,6 mg (N = 4),1 (25.0) n (%)
same,Drug-related TEAE: Amylase increased,6 mg (N = 4),0 n (%)
same,Drug-related TEAE: Anemia,6 mg (N = 4),0 n (%)
same,Drug-related TEAE: Aortic dilatation,6 mg (N = 4),0 n (%)
same,Drug-related TEAE: Aspartate aminotransferase increased,6 mg (N = 4),2 (50.0) n (%)
same,Drug-related TEAE: Asthenia,6 mg (N = 4),1 (25.0) n (%)
same,Drug-related TEAE: Beta globulin decreased,6 mg (N = 4),0 n (%)
same,Drug-related TEAE: Beta globulin increased,6 mg (N = 4),1 (25.0) n (%)
same,Drug-related TEAE: Blood alkaline phosphatase increased,6 mg (N = 4),1 (25.0) n (%)
same,Drug-related TEAE: Blood bilirubin increased,6 mg (N = 4),2 (50.0) n (%)
same,Drug-related TEAE: Blood creatine phosphokinase increased,6 mg (N = 4),0 n (%)
same,Drug-related TEAE: Blood fibrinogen increased,6 mg (N = 4),0 n (%)
same,Drug-related TEAE: Blood lactate dehydrogenase increased,6 mg (N = 4),1 (25.0) n (%)
same,Drug-related TEAE: Blood pressure increased,6 mg (N = 4),0 n (%)
same,Drug-related TEAE: Blood urea increased,6 mg (N = 4),2 (50.0) n (%)
same,Drug-related TEAE: Blood uric acid increased,6 mg (N = 4),1 (25.0) n (%)
same,Drug-related TEAE: Breath odor,6 mg (N = 4),2 (50.0) n (%)
same,Drug-related TEAE: Capillary disorder,6 mg (N = 4),0 n (%)
same,Drug-related TEAE: Constipation,6 mg (N = 4),0 n (%)
